Source: paper PMC12718261, “New Fluorescent Synthetic Retinoids as Potential RAR Agonists with Anticancer, Molecular Docking and ADME Assessments” (Journal of Fluorescence, 2025)
Values joined by “and” are separate entries in the source; they are usually repeats but may differ in a detail not shown here. Equal values may be shown once.

Assays:
Type in all cases: cell-based
[1] = tested on: WI-38 normal human fibroblast cells; experiment: MTT cytotoxicity assay on normal fibroblasts; details: WI-38 normal fibroblast cells, 24 h, mean ± SEM
Procedure: (§1) The antiproliferation and cytotoxicity were assessed using 3-(4,5-dimethylthiazol-2-yl)−2,5-diphenyltetrazolium bromide (MTT, Serva) colorimetric assay. All tested cancer cell lines were seeded at a density of 20,000 cells per well in 96-well plates and allowed to adhere overnight. The attached cells were treated with five serial dilutions (100, 50, 5, 0.5, and 0.1 μM) in triplicate. These concentrations were prepared by diluting the stock solutions with serum-free culture media. The negative control cells were those treated with 0.1% DMSO solvent alone. The treated cells were handled in reduced light and maintained under standard culture growth conditions for 24 h. After the incubation period, MTT powder was prepared as a stock solution (5 mg/mL), and 20 μL of the MTT working reagent (final concentration 0.5 mg/mL) was added to each well. This was followed by incubation with MTT reagent for 4 h in a humidified atmosphere (37 °C, 5% CO2) with subsequent addition of 150 μL of DMSO solubilizing solvent and incubation for 20 min. The absorbance of solubilized violet formazan crystals was measured at 570 nm with a Biotek 800 TS microplate reader. IC50 was calculated as the concentration of retinoid that produced 50% cell growth inhibition. For cytotoxicity assessment, WI-38 normal human fibroblast cells were used for the calculation of SI, which is the ratio of IC50 retinoid (WI-38)/IC50 retinoid (cancer cell line).

[2] = tested on: Caco-2; experiment: MTT anti-proliferative assay; details: Homo sapiens; Caco-2, MTT, 24 h, mean ± SEM
Procedure: as §1

[3] = tested on: HCT-116; experiment: MTT anti-proliferative assay; details: Homo sapiens; HCT-116, MTT, 24 h, mean ± SEM
Procedure: as §1

[4] = tested on: HepG-2; experiment: MTT anti-proliferative assay; details: Homo sapiens, HepG2; HepG-2, MTT, 24 h, mean ± SEM
Procedure: as §1

[5] = tested on: MCF-7; experiment: MTT anti-proliferative assay; details: Homo sapiens, MCF7; MCF-7, MTT, 24 h, mean ± SEM
Procedure: as §1

[6] = tested on: MDA-MB231; experiment: MTT anti-proliferative assay; details: Homo sapiens, MDA-MB-231, 24 h, mean ± SEM
Procedure: as §1

[7] = tested on: PC-3; experiment: MTT anti-proliferative assay; details: Homo sapiens; PC-3, MTT, 24 h, mean ± SEM
Procedure: as §1

[8] = tested on: Caco-2 cancer cells; experiment: Apoptosis assay Annexin V/PI flow cytometry; details: Caco-2, IC50 dose, 24 h, AV/PI
Procedure: The standard protocol used in HSBR was performed. […] Cells were rinsed with 1 mL of binding buffer; the cells were again suspended in phosphate-buffered saline (PBS) (Lonza). 100 µL of cell suspension was incubated with 1 µL of FITC-labeled Annexin-V and 5 µL of PI for 15 min at 4 °C in the dark. The suspension was then mixed with 400 µL of ice-cold binding buffer, and each sample's apoptotic cells were analyzed using a Cytoflex flow cytometer (Beckman Coulter, USA), and CytExpert software (version 2.4.0.28) was employed for data analysis.

[9] = tested on: Caco-2 cancer cells; experiment: Cell cycle assay PI staining flow cytometry; details: Caco-2, IC50 dose, 24 h
Procedure: The standard protocol used in HSBR was performed. […] Cells were concentrated at 1500 xg and suspended in 50 μg/ml propidium iodide (PI) staining solution and 20 µg/ml RNaseA to identify cells with a sub-G1 DNA content. Cytoflex flow cytometer (Beckman Coulter, USA) was used, and CytExpert software (version 2.4.0.28) was employed for data analysis. The gating strategy used to eliminate doublets depends on plotting the population against a 2D contour plot in four quadrants, referred to as Q1(LL), Q2 (LR), Q3 (UL), and Q4 (UR), that illustrates the spread of the Annexin-FITC-H core cell population against PI PE-H.

[10] = tested on: CRABPI gene in Caco-2 cells; experiment: Gene expression RT-qPCR; details: Caco-2, IC50 dose, 24 h, relative to 0.1% DMSO, normalized to GAPDH
Procedure: (§2) The gene expression analysis was performed using real-time quantitative PCR (RT-qPCR), as previously documented. After incubation, cells were harvested, and total RNA was extracted using the Favor-PrepTM Blood/Cultured Cell Total RNA Purification Mini kit (Favorgen Biotech Corp., Ping-Tung, Taiwan). The purified RNA was then reverse transcribed into the first-strand cDNA using the Revert Aid First-Strand cDNA Synthesis Kit (Thermo Scientific, Waltham, MA, USA). All qPCR reactions were carried out using the […] SYBR® Green qPCR Kit (Willowfort, Nottingham, UK). Differential gene expression was performed using the 2ˆ^−ΔΔCT method utilizing GAPDH as a reference gene.

[11] = tested on: CRABPII gene in Caco-2 cells; experiment: Gene expression RT-qPCR; details: Caco-2, IC50 dose, 24 h, relative to 0.1% DMSO, normalized to GAPDH
Procedure: as §2

[12] = tested on: Caspase-3 gene in Caco-2 cells; experiment: Gene expression RT-qPCR; details: Caco-2, IC50 dose, 24 h, relative to 0.1% DMSO, normalized to GAPDH
Procedure: as §2

[13] = tested on: Cyt-C gene in Caco-2 cells; experiment: Gene expression RT-qPCR; details: Caco-2, IC50 dose, 24 h, relative to 0.1% DMSO, normalized to GAPDH
Procedure: as §2

[14] = tested on: RAR-α gene in Caco-2 cells; experiment: Gene expression RT-qPCR; details: Caco-2, IC50 dose, 24 h, relative to 0.1% DMSO, normalized to GAPDH
Procedure: as §2

[15] = tested on: RAR-γ gene in Caco-2 cells; experiment: Gene expression RT-qPCR; details: Caco-2, IC50 dose, 24 h, relative to 0.1% DMSO, normalized to GAPDH
Procedure: as §2

[16] = tested on: RAR-α, RAR-β, RAR-γ proteins in Caco-2 cells; experiment: Western blotting of RAR proteins; details: Caco-2, IC50 dose, 24 h, normalized to β-actin
Procedure: Using the previously outlined protocol, the western blot technique was used to determine the expression of RAR-α (Cat. No. E6Z6 K, cell signaling, USA), RAR-β (Cat. No. PP-H4338-00, R&D systems, USA) and RAR- γ (Cat. No. D3 A4, cell signaling, USA) in Caco-2 cells. […] Following incubation, floating adhered cells were separated and lysed. The Caco-2 cell lysate was immediately collected, subjected to sonication, and centrifuged for 15 min at 12,000 × g. The total soluble protein content was measured colorimetrically using the PierceTM 660 nm Assay (Thermo Scientific, Waltham, MA, USA) after the resultant supernatant was separated. The Gel documentation system (Geldoc-it, UVP, England) was applied for data analysis using Totallab analysis software (Ver.1.0.1) (ww.totallab.com).

[17] = tested on: total ATPase in Caco-2 cells; experiment: Total ATPase activity, malachite green colorimetric; details: Caco-2, IC50 dose, 24 h; 0.1% DMSO control normalized to 100%
Procedure: (§3) The total activity of ATPase and calcium-independent ATPase activity was quantified colorimetrically as described by our previous protocol. […] The inorganic phosphate (Pi) liberated after the hydrolysis of ATP by ATPase enzymes was complexed into a colored product in one step after the addition of a mixed reagent containing malachite green, ammonium molybdate, and polyvinyl alcohol (2:1:1). The intensity of absorbance at 630 nm was measured using the BioTek 800 TS absorbance plate reader (USA) and was directly proportional to the quantity of liberated Pi. In order to eliminate any color due to the non-enzymatic hydrolysis of ATP, control reactions were made using only ATP in the reaction buffer, and the absorbance intensity was then subtracted from the readings of the samples and standards.

[18] = tested on: calcium-independent ATPases in Caco-2 cells; experiment: Calcium-independent ATPase activity, malachite green colorimetric; details: Caco-2, IC50 dose, 24 h; 0.1% DMSO control normalized to 100%
Procedure: as §3

## O=C(O)c1ccc2cc(-c3ccc4c(c3)CCCO4)ccc2c1 [Compound 4b, 6-(chroman-6-yl)−2-naphthoic acid]
[1]
  IC50: 33.5 ± 3.4 µM
[2]
  IC50: 15 ± 0.4 µM
[3]
  IC50: 36.9 ± 2.4 µM
[4]
  IC50: 59.5 ± 3.5 µM
[5]
  IC50: 53.1 ± 5.4 µM
[6]
  IC50: 2.28 ± 0.2 µM
[7]
  IC50: 2.71 ± 0.2 µM
[8]
  % Early apoptotic cells (LR): 61.41% and 61.41 ± 5.3 %
  % Late apoptotic cells (UL): 0.09%
  % Necrotic cells (UR): 38.12 ± 2.8 %
  % Viable cells (LL): 0.37%
[9]
  % G0-G1: 17.69 ± 3.2%
  % G2M: 1.76 ± 0.1%
  % S: 4.16 ± 1.5%
  % SubG0-G1: 76.81% and 76.81 ± 6.7 %
[10]
  CRABPI gene expression fold change: 53.5 ± 2.4 fold
[11]
  CRABPII gene expression fold change: 2.0 ± 0.1 fold
[12]
  caspase-3 gene expression fold change: 2.3 ± 0.1 fold
[13]
  Cyt-C gene expression fold change: 1.7 ± 0.1 fold
[14]
  RAR-α gene expression fold change: 2.9 ± 0.1 fold
[15]
  RAR-γ gene expression fold change: 4.3 ± 0.2 fold
[16]
  RAR protein expression (western blot): overexpression of all RAR subtypes
[17]
  total ATPase activity: 34.6%
[18]
  ca+2-independent ATPase activity: 36.1%
